Measurements: ChEMBL document CHEMBL1121424, “Orally active cephalosporins and penicillins” (J Med Chem, 1980)
≈ marks a conversion by molar mass, not a printed value.

system: Escherichia coli; experiment: Tested for the antimicrobial activity against Escherichia coli in mice perorally; assay type: functional; details: po

| SMILES | ED50 [mg/kg] |
| --- | --- |
| N[C@@H](C(=O)NC1C(=O)N2C(C(=O)O)=C(CSc3c[nH]nn3)CSC12)c1ccc2c(c1)OCO2 (some centres undefined) | 24.8 |
| NC(C(=O)NC1C(=O)N2C(C(=O)O)=C(CSc3cn[nH]n3)CS[C@H]12)c1ccc2c(c1)CCO2 (some centres undefined) | 19 |

system: Klebsiella pneumoniae; experiment: Tested for inhibition of visible growth of Klebsiella pneumoniae; assay type: functional; details: not given

| MIC [µg/mL] | SMILES |
| --- | --- |
| 3.1 (≈ 6.32 µM) | N[C@@H](C(=O)NC1C(=O)N2C(C(=O)O)=C(CSc3c[nH]nn3)CSC12)c1ccc2c(c1)OCO2 (some centres undefined) |
| 6.2 (≈ 12.7 µM) | NC(C(=O)NC1C(=O)N2C(C(=O)O)=C(CSc3cn[nH]n3)CS[C@H]12)c1ccc2c(c1)CCO2 (some centres undefined) |

system: Staphylococcus aureus; experiment: Tested for the antimicrobial activity against Staphylococcus aureus; assay type: functional; details: not given

| SMILES | ED50 [mg/kg] |
| --- | --- |
| N[C@@H](C(=O)NC1C(=O)N2C(C(=O)O)=C(CSc3c[nH]nn3)CSC12)c1ccc2c(c1)OCO2 (some centres undefined) | 0.13 |

system: not listed separately; experiment: Tested for the peak time in mice following 12.5 mg/kg oral dose of cephalosporin; assay type: ADME, organism-based; parameters: dose 12.5 mg/kg, route oral; details: mouse, in vivo, read-out: Peak time (converted)

| Tmax [min] | SMILES |
| --- | --- |
| 20 | N[C@@H](C(=O)NC1C(=O)N2C(C(=O)O)=C(CSc3c[nH]nn3)CSC12)c1ccc2c(c1)OCO2 (some centres undefined) |

system: Streptococcus pyogenes; experiment: Tested for inhibition of visible growth of Streptococcus pyogenes; assay type: functional; details: not given

| MIC [µg/mL] | SMILES |
| --- | --- |
| 0.2 (≈ 0.408 µM) | N[C@@H](C(=O)NC1C(=O)N2C(C(=O)O)=C(CSc3c[nH]nn3)CSC12)c1ccc2c(c1)OCO2 (some centres undefined) |
| 0.1 (≈ 0.205 µM) | NC(C(=O)NC1C(=O)N2C(C(=O)O)=C(CSc3cn[nH]n3)CS[C@H]12)c1ccc2c(c1)CCO2 (some centres undefined) |

system: not listed separately; experiment: (§1) Tested for the antimicrobial activity against Salmonella schottmuelleri in mice; assay type: functional; details: not given

| SMILES | ED50 [mg/kg] |
| --- | --- |
| N[C@@H](C(=O)NC1C(=O)N2C(C(=O)O)=C(CSc3c[nH]nn3)CSC12)c1ccc2c(c1)OCO2 (some centres undefined) | 8.1 |
| NC(C(=O)NC1C(=O)N2C(C(=O)O)=C(CSc3cn[nH]n3)CS[C@H]12)c1ccc2c(c1)CCO2 (some centres undefined) | 30 |

system: Staphylococcus aureus; experiment: Tested for the antimicrobial activity against Staphylococcus aureus, benzyl-penicillin sensitive in mice, perorally; assay type: functional; details: po

| SMILES | ED50 [mg/kg] |
| --- | --- |
| N[C@@H](C(=O)NC1C(=O)N2C(C(=O)O)=C(CSc3c[nH]nn3)CSC12)c1ccc2c(c1)OCO2 (some centres undefined) | 0.7 |

system: Escherichia coli; experiment: Tested for inhibition of visible growth of Escherichia coli; assay type: functional; details: not given

| MIC [µg/mL] | SMILES |
| --- | --- |
| 12.5 (≈ 25.5 µM) | N[C@@H](C(=O)NC1C(=O)N2C(C(=O)O)=C(CSc3c[nH]nn3)CSC12)c1ccc2c(c1)OCO2 (some centres undefined) |
| 12.5 (≈ 25.6 µM) | NC(C(=O)NC1C(=O)N2C(C(=O)O)=C(CSc3cn[nH]n3)CS[C@H]12)c1ccc2c(c1)CCO2 (some centres undefined) |

system: Escherichia coli; experiment: Tested for the antimicrobial activity against Escherichia coli in mice; assay type: functional; details: not given

| SMILES | ED50 [mg/kg] |
| --- | --- |
| N[C@@H](C(=O)NC1C(=O)N2C(C(=O)O)=C(CSc3c[nH]nn3)CSC12)c1ccc2c(c1)OCO2 (some centres undefined) | 9.1 |
| NC(C(=O)NC1C(=O)N2C(C(=O)O)=C(CSc3cn[nH]n3)CS[C@H]12)c1ccc2c(c1)CCO2 (some centres undefined) | 11 |

system: Streptococcus pneumoniae; experiment: Tested for inhibition of visible growth of Streptococcus pneumoniae; assay type: functional; details: not given

| MIC [µg/mL] | SMILES |
| --- | --- |
| 0.2 (≈ 0.408 µM) | N[C@@H](C(=O)NC1C(=O)N2C(C(=O)O)=C(CSc3c[nH]nn3)CSC12)c1ccc2c(c1)OCO2 (some centres undefined) |
| 0.1 (≈ 0.205 µM) | NC(C(=O)NC1C(=O)N2C(C(=O)O)=C(CSc3cn[nH]n3)CS[C@H]12)c1ccc2c(c1)CCO2 (some centres undefined) |

system: Enterococcus faecalis; experiment: Tested for inhibition of visible growth of Streptococcus faecalis; assay type: functional; details: not given

| MIC [µg/mL] | SMILES |
| --- | --- |
| 50 (≈ 102 µM) | N[C@@H](C(=O)NC1C(=O)N2C(C(=O)O)=C(CSc3c[nH]nn3)CSC12)c1ccc2c(c1)OCO2 (some centres undefined) |
| 100 (≈ 205 µM) | NC(C(=O)NC1C(=O)N2C(C(=O)O)=C(CSc3cn[nH]n3)CS[C@H]12)c1ccc2c(c1)CCO2 (some centres undefined) |

system: Proteus mirabilis; experiment: Tested for inhibition of visible growth of Proteus mirabilis; assay type: functional; details: not given

| MIC [µg/mL] | SMILES |
| --- | --- |
| 50 (≈ 102 µM) | N[C@@H](C(=O)NC1C(=O)N2C(C(=O)O)=C(CSc3c[nH]nn3)CSC12)c1ccc2c(c1)OCO2 (some centres undefined) |
| 100 (≈ 205 µM) | NC(C(=O)NC1C(=O)N2C(C(=O)O)=C(CSc3cn[nH]n3)CS[C@H]12)c1ccc2c(c1)CCO2 (some centres undefined) |

system: not listed separately; experiment: Tested for inhibition of visible growth of Salmonella schottmuelleri; assay type: functional; details: not given

| MIC [µg/mL] | SMILES |
| --- | --- |
| 1.6 (≈ 3.26 µM) | N[C@@H](C(=O)NC1C(=O)N2C(C(=O)O)=C(CSc3c[nH]nn3)CSC12)c1ccc2c(c1)OCO2 (some centres undefined) |
| 3.1 (≈ 6.35 µM) | NC(C(=O)NC1C(=O)N2C(C(=O)O)=C(CSc3cn[nH]n3)CS[C@H]12)c1ccc2c(c1)CCO2 (some centres undefined) |

system: Staphylococcus aureus; experiment: Tested for inhibition of visible growth of Staphylococcus aureus; assay type: functional; details: not given

| MIC [µg/mL] | SMILES |
| --- | --- |
| 0.8 (≈ 1.63 µM) | N[C@@H](C(=O)NC1C(=O)N2C(C(=O)O)=C(CSc3c[nH]nn3)CSC12)c1ccc2c(c1)OCO2 (some centres undefined) |
| 1.6 (≈ 3.27 µM) | NC(C(=O)NC1C(=O)N2C(C(=O)O)=C(CSc3cn[nH]n3)CS[C@H]12)c1ccc2c(c1)CCO2 (some centres undefined) |

system: Mus musculus; experiment: Tested for the antimicrobial activity against Streptococcus pyogenes in mice, subcutaneously.; assay type: functional; details: sc

| SMILES | ED50 [mg/kg] |
| --- | --- |
| NC(C(=O)NC1C(=O)N2C(C(=O)O)=C(CSc3cn[nH]n3)CS[C@H]12)c1ccc2c(c1)CCO2 (some centres undefined) | 0.19 |

system: Staphylococcus aureus; experiment: Tested for inhibition of visible growth of Staphylococcus aureus, benzyl-penicillin sensitive; assay type: functional; details: not given

| MIC [µg/mL] | SMILES |
| --- | --- |
| 0.4 (≈ 0.815 µM) | N[C@@H](C(=O)NC1C(=O)N2C(C(=O)O)=C(CSc3c[nH]nn3)CSC12)c1ccc2c(c1)OCO2 (some centres undefined) |
| 0.4 (≈ 0.819 µM) | NC(C(=O)NC1C(=O)N2C(C(=O)O)=C(CSc3cn[nH]n3)CS[C@H]12)c1ccc2c(c1)CCO2 (some centres undefined) |

system: Streptococcus pneumoniae; experiment: (§2) Tested for the antimicrobial activity against Streptococcus pneumoniae in mice; assay type: functional; details: not given

| SMILES | ED50 [mg/kg] |
| --- | --- |
| N[C@@H](C(=O)NC1C(=O)N2C(C(=O)O)=C(CSc3c[nH]nn3)CSC12)c1ccc2c(c1)OCO2 (some centres undefined) | 5 |

system: Streptococcus pyogenes; experiment: (§3) Tested for the antimicrobial activity against Streptococcus pyogenes in mice; assay type: functional; details: not given

| SMILES | ED50 [mg/kg] |
| --- | --- |
| N[C@@H](C(=O)NC1C(=O)N2C(C(=O)O)=C(CSc3c[nH]nn3)CSC12)c1ccc2c(c1)OCO2 (some centres undefined) | 0.41 |
| NC(C(=O)NC1C(=O)N2C(C(=O)O)=C(CSc3cn[nH]n3)CS[C@H]12)c1ccc2c(c1)CCO2 (some centres undefined) | 0.27 |

system: Streptococcus pyogenes; experiment: as §3; assay type: functional; details: not given

| SMILES | ED50 [mg/kg] |
| --- | --- |
| N[C@@H](C(=O)NC1C(=O)N2C(C(=O)O)=C(CSc3c[nH]nn3)CSC12)c1ccc2c(c1)OCO2 (some centres undefined) | 0.32 |

system: Streptococcus pneumoniae; experiment: as §2; assay type: functional; details: not given

| SMILES | ED50 [mg/kg] |
| --- | --- |
| N[C@@H](C(=O)NC1C(=O)N2C(C(=O)O)=C(CSc3c[nH]nn3)CSC12)c1ccc2c(c1)OCO2 (some centres undefined) | 4.1 |

system: not listed separately; experiment: as §1; assay type: functional; details: not given

| SMILES | ED50 [mg/kg] |
| --- | --- |
| N[C@@H](C(=O)NC1C(=O)N2C(C(=O)O)=C(CSc3c[nH]nn3)CSC12)c1ccc2c(c1)OCO2 (some centres undefined) | 12.5 |
| NC(C(=O)NC1C(=O)N2C(C(=O)O)=C(CSc3cn[nH]n3)CS[C@H]12)c1ccc2c(c1)CCO2 (some centres undefined) | > 40 |

system: Enterobacter cloacae; experiment: Tested for inhibition of visible growth of Enterobacter cloacae; assay type: functional; details: not given

| MIC [µg/mL] | SMILES |
| --- | --- |
| 50 (≈ 102 µM) | N[C@@H](C(=O)NC1C(=O)N2C(C(=O)O)=C(CSc3c[nH]nn3)CSC12)c1ccc2c(c1)OCO2 (some centres undefined) |
| 50 (≈ 102 µM) | NC(C(=O)NC1C(=O)N2C(C(=O)O)=C(CSc3cn[nH]n3)CS[C@H]12)c1ccc2c(c1)CCO2 (some centres undefined) |

system: Klebsiella aerogenes; experiment: Tested for inhibition of visible growth of Enterobacter aerogenes; assay type: functional; details: not given

| MIC [µg/mL] | SMILES |
| --- | --- |
| 50 (≈ 102 µM) | N[C@@H](C(=O)NC1C(=O)N2C(C(=O)O)=C(CSc3c[nH]nn3)CSC12)c1ccc2c(c1)OCO2 (some centres undefined) |
| 25 (≈ 51.2 µM) | NC(C(=O)NC1C(=O)N2C(C(=O)O)=C(CSc3cn[nH]n3)CS[C@H]12)c1ccc2c(c1)CCO2 (some centres undefined) |
